# Laboratory results published in US20170312253A1 (The Third Affiliated Hospital, Third Military Medical …, priority 2014, published 2017).
# Legend:
# [1] = tested on: APPswe/PS1DE9 (AD) transgenic mice; assay: Y-maze (spontaneous alternation and novel arm probe test); format: in vivo; details: AD mice vs control group
# Experimental: APPswe/PS1DE9 (AD) transgenic mice were purchased from Jackson Laboratory, USA (No. 005864), raised in the SPF grade animal house of The Third Affiliated Hospital of The Third Military Medical University. All the processes and correlated experiments applied to the mice were approved and filed with the Animal Ethics Committee of the Third Military Medical University. […] Alternatively, the daily dose for the prophylactic group may be 6.4 mg/kg, and the daily dose for the treatment group may be 12.8 mg/kg. Administration from 3-month old to 9-month old is the prophylactic test, and administration from 9-month old to 12-month old is the therapeutic test After reaching a stated time, the mice in each group received behavioral tests according to the method in the follows. Three mice in each group were taken for Golgi staining. The remaining mice were overly anaesthetized to receive brain anatomy. One side of the cerebral hemisphere was frozen and then for a biochemical analysis, and the other side of the cerebral hemisphere was fixed with 4% paraform for a histological analysis. All the mice in each group received behavioral tests, including a water maze, Y-maze and open field test. Water maze test includes four days of platform test and the subsequent probe test. The entire process was recorded by video, and analyzed with an image analysis software (ANY-maze, Stoelting). In the platform test, the escape path length and escape latency were measured and calculated. In the probe test, the time in each quadrant and the time across platform were measured. The spontaneous alternation test and novel arm probe test were carried out in the Y-maze. In the spontaneous alternation test, the mouse was free running In the maze for 5 min. Alternation is defined as entering the three arms connected with each other continuously. […] In the open field test, the mouse was put in the center of an open field for 3 min, and its path was recorded by a tracking system (Limelight, ActiMetrics). At the same time, the numbers of rearing, grooming, defecation and urination of the mouse were recorded.
# [2] = tested on: Aβ induced oxidative stress; assay: ROS detection; format: cell-based
# Experimental: The ROS detection was performed according to the scheme provided by the manufacturer (Cell Biolabs Inc).
# [3] = tested on: ischemia-reperfused elderly rats; details: cited from earlier work
# [4] = tested on: synapse associated proteins; assay: Western blot of synapse associated proteins; format: in vivo; details: AD mice vs control group
# Experimental: APPswe/PS1DE9 (AD) transgenic mice were purchased from Jackson Laboratory, USA (No. 005864), raised in the SPF grade animal house of The Third Affiliated Hospital of The Third Military Medical University. All the processes and correlated experiments applied to the mice were approved and filed with the Animal Ethics Committee of the Third Military Medical University. […] Alternatively, the daily dose for the prophylactic group may be 6.4 mg/kg, and the daily dose for the treatment group may be 12.8 mg/kg. […]
# The enzymes related with Aβ formation and degradation their molecule levels, the levels of hyperphosphprylated Tau proteins, and the levels of synaptic plasticity correlated proteins were all detected with Western blot. […] The blotting was detected with the following antibodies: APP C terminal antibody (171610, Millipore), BACE1 antibody (Millipore), Aβ antibody (6E10, Abcam), Nepriiysin antibody (Millipore), RAGE antibody (Millipore), LRP antibody (5A6, Calbiochem), IDE antibody (epitomics), phosphorylated Tau protein antibody, including pS396 (Signalway), pT231 (Signalway), pS199 (epitomics), pS262 (Abcam), SNAP25 antibody (Millipore), Synaptophysin antibody (Millipore), Synapsin I antibody (Millipore), VAMP1 antibody (Millipore), PSD95 antibody (Millipore), F-actin antibody (Actin) (Sigma-Aldrich). […]
# [5] = tested on: cerebral ischemia-reperfusion injury; details: cited from earlier work
# [6] = tested on: neural inflammatory reactions; assay: Neural inflammatory reaction in brain (ELISA of IL-6, IL-1β, INF-γ, TNF-β); format: in vivo; details: AD mice
# Experimental: (§1) APPswe/PS1DE9 (AD) transgenic mice were purchased from Jackson Laboratory, USA (No. 005864), raised in the SPF grade animal house of The Third Affiliated Hospital of The Third Military Medical University. All the processes and correlated experiments applied to the mice were approved and filed with the Animal Ethics Committee of the Third Military Medical University. […] Alternatively, the daily dose for the prophylactic group may be 6.4 mg/kg, and the daily dose for the treatment group may be 12.8 mg/kg. Administration from 3-month old to 9-month old is the prophylactic test, and administration from 9-month old to 12-month old is the therapeutic test After reaching a stated time, the mice in each group received behavioral tests according to the method in the follows. Three mice in each group were taken for Golgi staining. The remaining mice were overly anaesthetized to receive brain anatomy. One side of the cerebral hemisphere was frozen and then for a biochemical analysis, and the other side of the cerebral hemisphere was fixed with 4% paraform for a histological analysis.
# (§2) After homogenating the frozen brain tissues, extraction was conducted with TBS, SDS and formic acid successively. The TBS, SDS and formic acid extracts represent soluble Aβ, loosen senile plaques and compact senile plaques, respectively. […]
# [7] = tested on: oxidation level in the brain; assay: Oxidation level in brain tissues, DNPH Western blotting; format: in vivo; details: AD mice
# Experimental: as §1, with “The remaining mice were overly anaesthetized to receive brain anatomy. One side of the cerebral hemisphere was frozen and then for a biochemical analysis, and the other side of the cerebral hemisphere was fixed with 4% paraform for a histological analysis.” left out
# The carbonyl level of the proteins in the tissue reflects the oxidation level in the tissue. DNPH is reacted with the carbonyl of the proteins to form a protein-DNP hydrazone complex, and the level of the complex can he detected with DNPH antibodies so as to assess the oxidation level in the tissue, A 5 μl sample of fresh brain tissues was co-incubated with 12% SDS and a 10 μl DNPH working solution at room temperature for 20 min. […] Samples containing 15 μg total proteins were loaded and detected with Western blot. […]
# α-secretase = α-secretase activity in brain tissues (kit); format: in vivo; details: AD mice brain
# Experimental: as §1, §2
compound,measurement,setting,value
"CC1=NN(c2ccccc2)C(=O)C1 [Edaravone, 3-methyl-1-phenyl-2-pyrazolin-5-one]",Y-maze alternation proportion,[1],also significantly increased
same,Y-maze arm entry,[1],significantly higher than in the control group
same,Y-maze proportion of the novel arm entry,[1],significantly increased
same,Aβ induced oxidative stress (ROS test),[2],reverse the Aβ induced oxidative stress
same,JNK-c-Jun pathway,[3],suppress the JNK-c-Jun pathway
same,glutathione peroxidase activity,[3],reduce the glutathione peroxidase activity
same,neuronal apoptosis,[3],decrease the neuronal apoptosis
same,expressions of the synapse associated proteins,[4],much higher than in the control group
same,cerebral ischemia-reperfusion injury area,[5]; previous studies,reduce cerebral ischemia-reperfusion injury area
same,gene expression of the Fas/FasL signaling pathway,[5]; transient focal ischemia in rats,suppress the gene expression of the Fas/FasL signaling pathway
same,neural inflammatory reaction level in the brain,[6]; p.o.,"significantly reduced, too"
same,neural inflammatory reaction in the brain,[6]; prophylactic and therapeutic test,all reduced significantly
same,oxidation level in the brain,[7],significantly reduces the oxidation level
same,activity of α-secretase,α-secretase,increase of the activity of α-secretase
